# According to patent US8685957B1 (Cubist Pharmaceuticals, Inc., priority 2012, dated 2014):
# Test: Hygroscopicity experiments by DVS (water vapor sorption)
# Assay type: physicochemical
# Conditions: relative to amorphous tazobactam arginine and amorphous tazobactam sodium
# Protocol: Analysis by DVS was performed on a VTI SGA-100 water vapor sorption analyser using approximately 18-23 mg of each sample. Each sample was pre-dried at 60° C. for a maximum of 1 hour and then analyzed at 25° C. in 10% relative humidity (RH) steps from 5-95% (adsorption) and then 90-10% RH (desorption). The sample was equilibrated to each humidity level for a maximum of 3 hours or until constant weight was attained. Equilibrium criteria were set at less than 0.0050% weight change within 5 minutes.
structure (smiles),measurement,value
"C[C@]1(Cn2ccnn2)[C@H](C(=O)O)N2C(=O)CC2S1(=O)=O (stereo partly shown) [Tazobactam arginine polymorph Ia, tazobactam arginine]",hygroscopicity,low hygroscopicity
